Laboratory results reported in PubChem BioAssay (NCI).
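Protocol summary: plate cells (96-well), add compound at 5 concentrations, incubate 48 h, interpolate endpoints linearly. At the GI50, growth is halved. Definition used: TGI = concentration required for complete inhibition of growth.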

What was measured:
Experiment in all cases: growth of human tumour cells (NCI), 48 h
[1] = system: MOLT-4 leukemia
[2] = system: A498 renal
[3] = system: IGROV1 ovarian
[4] = system: NCI-H522 lung
[5] = system: SF-295 CNS
[6] = system: HCC-2998 colon
[7] = system: SF-268 CNS
[8] = system: NCI-H226 lung
[9] = system: SN12C renal
[10] = system: BT-549 breast

Row | SMILES | GI50 [1] [µM] | TGI [1] [µM] | GI50 [2] [µM] | TGI [2] [µM] | GI50 [3] [µM] | TGI [3] [µM] | GI50 [4] [µM] | GI50 [5] [µM] | TGI [5] [µM] | GI50 [6] [µM] | TGI [6] [µM] | GI50 [7] [µM] | TGI [7] [µM] | GI50 [8] [µM] | TGI [8] [µM] | GI50 [9] [µM] | TGI [9] [µM] | GI50 [10] [µM] | TGI [10] [µM] | TGI [4] [µM]
1 | CCN1C(=O)N(CC)C2C1NN=c1s/c(=C\c3ccccc3)c(=O)n12 (configuration not stated) | 0.42 | > 100 | 0.0238 | 0.147 | 0.298 | > 100 | 0.11 | 0.0663 | > 100 | 0.282 | > 100 | 0.771 | > 100 | 27.6 | > 100 | 0.511 | > 100 | 0.199 | > 100 | 
2 | COc1cc(C2C(C#N)=C(N)Oc3cc4c(cc32)OCO4)cc2c1OCO2 (configuration not stated) | 0.935 | 49.5 | 0.103 |  | 0.724 | > 100 | 0.0926 | 0.209 | > 100 | 0.352 | 6.11 | 0.963 | 97.3 | 0.273 | 4.59 | 0.599 | > 100 | 1.8 | 29.5 | 2.72
3 | C[C@@H](Oc1cc(-c2cnn(C3CC4(CCCNC4)C3)c2)cnc1N)c1c(Cl)ccc(F)c1Cl (some centres not stated) | 1.22 | 5.46 | 0.532 | 2.53 | 2.99 | 13.6 | 1.35 | 0.247 | 2.13 | 1.51 | 3.14 | 1.81 | 6.02 | 2.29 | 9.76 | 1.5 | 8.97 | 1.95 | 3.72 | 2.79
4 | CCN(CC)c1ccc2nc3c4ccccc4c(=NC(=O)c4ccccc4-c4c5ccc(N(CC)CC)cc5[o+]c5cc(N(CC)CC)ccc45)cc-3oc2c1 | 1.81 | > 100 | 6.15 | 23.5 | 2.41 | 7.49 | 3.14 | 2.96 | 14.2 | 1.62 | 3.82 | 4.69 | 19.4 | 15.4 | 38.8 | 2.13 | 6.14 | 14 | 30.8 | 21.9
5 | CC(C)CNc1nc(N=[N+]=[N-])nc(NCC(C)C)n1 | > 10 | > 10 | > 10 | > 10 | > 10 | > 10 | > 10 | > 10 | > 10 | > 10 | > 10 | > 10 | > 10 | > 10 | > 10 | > 10 | > 10 | > 10 | > 10 | > 10
6 | Nc1cccc2nsnc12 |  | > 54.5 |  | > 100 |  | > 100 |  |  | > 100 |  | > 100 |  | > 100 |  | > 100 |  | > 100 |  | > 100 | > 52.2
7 | Cc1cc2c(C(C)C)c(O)c(O)c(C=O)c2c(O)c1-c1c(C)cc2c(C(C)C)c(O)c(O)c(C=O)c2c1O (tested in a mixture with another compound) | 0.748 | 13.6 | 1.29 | 2.92 | 0.979 | 12.7 | 0.584 | 0.325 | 1.71 | 0.484 | 1.76 | 1.06 | 3.26 | 1.39 | 4.95 | 1.66 | 5.95 | 1.26 | 3.76 | 2.44
8 | N#CC[C@H](C1CCCC1)n1cc(-c2ncnc3[nH]ccc23)cn1 | 20.7 | > 78.8 | 13.3 | 53.8 | 34 | > 100 | 21 | 19.4 | 51.4 | 20.6 | > 91.7 | 16.8 | > 77.9 | 9.28 | > 92.5 | 22.1 | > 100 | 12.8 | 36 | 57.9
9 | Cc1cc2nc3c4ccccc4n(CCN(C)C)c3nc2cc1C | 0.555 | 9.9 | 1.43 | 2.86 | 1.28 | 10.2 | 0.673 | 1.39 | 9.84 | 1.47 | 4.13 | 1.45 | 5.86 | 2.01 | 6.99 | 1.08 | 10.5 | 2.07 | 6.25 | 3.24
10 | N#CSCC(=O)c1ccc(Cl)cc1 | 1.03 | > 33.1 | 5.59 | 20.9 | 1.33 | 6.6 | 2.69 | 2.89 | 13.5 | 12.1 | 27.8 | 2.58 | 8.31 | 10.8 | 33.3 | 3.69 | 19 | 2.69 | 11.4 | 9.51
11 | O=C(CC1(O)C(=O)Nc2c(Cl)ccc(Cl)c21)c1ccc(C2CC2)cc1 (configuration not stated) | 1.19 | 18.1 | 0.183 | 0.754 | 1.5 | 18.2 | 0.43 | 0.44 | 4.32 | 1.85 | 18.2 | 2.98 | 23.4 | 3.05 | 25.5 | 2.66 | 20.4 | 0.984 | 11 | 1.9
12 | CN1CCN(c2ccc3nc4c(nc3c2C(F)(F)F)C(=O)c2ncccc2C4=O)CC1 | 2.28 | 5.52 | 1.94 | 3.63 | 1.41 | 3.07 | 1.16 | 1.27 | 2.58 | 1.21 | 2.63 | 1.66 | 4.13 | 2.13 | 4.74 | 1.44 | 2.91 | 1.58 | 3.07 | 3.55
13 | Brc1ccc(Br)nn1 | 1.69 | 5.48 | 3.42 | 17.5 | 2 | 4.92 | 0.243 | 5.38 | 18.6 | 1.98 | 4.94 | 1.9 | 5.04 | 2.28 | 5.57 | 1.62 | 3.53 | 1.52 | 2.96 | 0.928
14 | CNCCOc1nc2c3cnccc3cc(-c3cc(OC)c(OC)c(OC)c3)c2c2ccncc12 | < 0.01 | 0.0478 | 0.0478 | 0.163 | 0.0281 | 0.357 | 0.0666 | 0.0211 | 0.101 | 0.0454 | 0.213 | 0.033 | 0.623 | 0.054 | 0.37 | 0.0199 | 0.0872 | 0.103 | 0.613 | 0.661
15 | O=C(NO)c1cnc(N2CCN(S(=O)(=O)c3ccc4ccccc4c3)CC2)nc1 | 0.0424 | > 41.3 | 0.0283 | 0.22 | 0.162 | 0.78 | 0.02 | 0.0532 | 0.268 | 0.11 | 0.32 | 0.169 | 1.3 | 0.157 | 2.55 | 0.198 | 13.2 | 0.803 | 53.4 | 0.104
16 | C[C@@H]1CN2[C@H]3[C@@H]1CC[C@]31CCC(=O)O[C@]1(C)[C@@H]1CC[C@H]3CCC=C3[C@@H]12 | > 70 | > 70 | > 70 | > 70 | > 70 | > 70 | > 70 | > 70 | > 70 | > 70 | > 70 | > 70 | > 70 | > 70 | > 70 | > 70 | > 70 | > 70 | > 70 | > 70
17 | CCCCCCC1N=C(N)N=C(N)N1c1ccc(Cl)cc1 (configuration not stated) | 7.03 | 32.5 | 7.05 | 24.8 | 3.53 | 17.4 | 6.53 | 2.58 | 17.6 | 8.95 | 22 | 3.78 | 21.7 | 13.2 | 54.2 | 3.76 | 16.1 | 3.37 | 18.3 | 22.2
18 | CC(=O)OCC(=O)C1(O)C(C)CC2C3C=C(C)C4=Cc5c(cnn5-c5ccccc5)CC4(C)C3C(O)CC21C (configuration not stated) | 0.753 | > 22 | 1.4 | 3.94 | 1.99 | 6.48 | 1.97 | 0.624 | 2.63 | 1.92 | 3.66 | 1.64 | 11.4 | 2.16 | 11.2 |  | 9.86 | 1.25 | 3.85 | 5.24
